“Also recorded” adds a separate entry of the source. Where two headings read alike, the source gives them in different places.
How the values were obtained:
[1] = system: Escherichia coli P-5101; experiment: In vivo efficacy against systemic infections in mice (intraperitoneal infection); parameters: species or system male mice (ddY); conditions: P5101, 168 h, po, twice, about 5 minutes and 6 hours after intraperitoneal infection, observed 7 days
Description: Each of the solutions was orally administered to mice infected with each of test organisms under the conditions described below, and the medium effective doses (ED50) obtained are shown in Table II. Male mice (ddY) weighing about 20 g (3) Escherichia coli P-5101: Intraperitoneal infection with about 9×10^6 cells per mouse suspended in trypto-soy broth with 4% mucin. Twice, about 5 minutes and 6 hours after infection. |Escherichia coli P-5101 for 7 days | The numerals in the table show ED50 (mg/kg). ED50 values were | calculated in accordance with the BehrensKaerber method (Arch. Exp. Path. | Pharm., 162, 480 (1931)). | po: oral administration.

[2] = system: Gram-positive and Gram-negative bacteria including Pseudomonas aeruginosa; experiment: In vitro antibacterial activity, overall; format: cell-based; conditions: for in vitro antibacterial activity compared with known compounds (in words): b258: Gram-negative bacteria, versus Compounds A, B, D and E, b33: versus compounds A and B; for antibacterial activity (in words): in vitro, Gram-positive and Gram-negative bacteria
Description: (§1) The minimum inhibitory concentrations (MIC, μg/ml) of the following compounds in vitro were measured by the agar dilution method of [Chemotherapy, Vol. 22, No. 16, page 1126 (1974)].

[3] = in vivo; conditions: for LD50 at 168 h: mouse, in vivo, po; for acute oral toxicity (in words): hydrochloride
Description: A solution containing each of Compounds 1 and 2 of this invention in various concentrations was orally given to male mice (ddY) at a dose of 0.1 ml per 10 g of body weight. The number of dead mice was counted after 7 days, and the value of median lethal dose (LD50, mg/kg) was calculated in accordance with the Behrens-Kaerber method.

[4] = system: Escherichia coli NIHJ JC-2; experiment: In vitro antibacterial activity (MIC, agar dilution method); format: cell-based
Description: as §1

[5] = system: Staphylococcus aureus No. 50774; experiment: as above; format: cell-based; conditions: Staphylococcus aureus No. 50774; agar dilution; read-out: minimum inhibitory concentration (MIC)
Description: as §1

[6] = system: Escherichia coli P-140a; experiment: as above; format: cell-based; conditions: P140A; Escherichia coli P-140a; agar dilution; read-out: minimum inhibitory concentration (MIC)
Description: as §1

[7] = system: Staphylococcus epidermidis No. 8; experiment: as above; format: cell-based; conditions: Staphylococcus epidermidis No. 8; agar dilution; read-out: minimum inhibitory concentration (MIC)
Description: as §1

[8] = system: Klebsiella pneumoniae No. 13; experiment: as above; format: cell-based; conditions: Klebsiella pneumoniae No. 13; agar dilution; read-out: minimum inhibitory concentration (MIC)
Description: as §1

[9] = system: Staphylococcus aureus 209P JC-1; experiment: as above; format: cell-based; conditions: Staphylococcus aureus 209P JC-1; agar dilution; read-out: minimum inhibitory concentration (MIC)
Description: as §1

[10] = system: Corynebacterium pyogenes C-21; experiment: as above; format: cell-based; conditions: C21; Corynebacterium pyogenes C-21; agar dilution; read-out: minimum inhibitory concentration (MIC)
Description: as §1

[11] = system: Shigella flexneri 4a P-330; experiment: as above; format: cell-based; conditions: 4AP330, read-out: minimum inhibitory concentration (MIC)
Description: as §1

[12] = system: Salmonella enteritidis No. 1891; experiment: as above; format: cell-based; conditions: Salmonella enterica; Salmonella enteritidis No. 1891; agar dilution; read-out: minimum inhibitory concentration (MIC)
Description: as §1

[13] = system: Proteus morganii Kono; experiment: as above; format: cell-based; conditions: Morganella morganii; Proteus morganii Kono; agar dilution; read-out: minimum inhibitory concentration (MIC)
Description: as §1

[14] = system: Streptococcus pyogenes 65A; experiment: as above; format: cell-based; conditions: Streptococcus pyogenes 65A; agar dilution; read-out: minimum inhibitory concentration (MIC)
Description: as §1

[15] = system: Shigella flexneri 2a; experiment: as above; format: cell-based; conditions: read-out: minimum inhibitory concentration (MIC)
Description: as §1

[16] = system: Staphylococcus aureus Smith; experiment: as above; format: cell-based; conditions: Staphylococcus aureus Smith; agar dilution; read-out: minimum inhibitory concentration (MIC)
Description: as §1

[17] = system: Enterobacter cloacae P-2540; experiment: as above; format: cell-based; conditions: P2540; Enterobacter cloacae P-2540; agar dilution; read-out: minimum inhibitory concentration (MIC)
Description: as §1

[18] = system: Proteus mirabilis P-2381; experiment: as above; format: cell-based; conditions: P2381; Proteus mirabilis P-2381; agar dilution; read-out: minimum inhibitory concentration (MIC)
Description: as §1

[19] = system: Pseudomonas aeruginosa Tsuchiijima; experiment: as above; format: cell-based; conditions: Pseudomonas aeruginosa Tsuchiijima; agar dilution; read-out: minimum inhibitory concentration (MIC)
Description: as §1

[20] = system: Serratia marcescens IFO 3736; experiment: as above; format: cell-based; conditions: IFO3736; Serratia marcescens IFO 3736; agar dilution; read-out: minimum inhibitory concentration (MIC)
Description: as §1

[21] = system: Pseudomonas aeruginosa No. 12; experiment: as above; format: cell-based; conditions: Pseudomonas aeruginosa No. 12; agar dilution; read-out: minimum inhibitory concentration (MIC)
Description: as §1

[22] = system: Staphylococcus aureus No. 80; experiment: as above; format: cell-based
Description: as §1

[23] = system: Escherichia coli P-5101; experiment: as above; format: cell-based; conditions: P5101; Escherichia coli P-5101; agar dilution; read-out: minimum inhibitory concentration (MIC)
Description: as §1

[24] = system: Salmonella typhimurium S-9; experiment: as above; format: cell-based; conditions: Salmonella enterica; Salmonella typhimurium S-9; agar dilution; read-out: minimum inhibitory concentration (MIC)
Description: as §1

[25] = system: Streptococcus faecalis P-2473; experiment: as above; format: cell-based; conditions: Enterococcus faecalis, P2473; Streptococcus faecalis P-2473; agar dilution; read-out: minimum inhibitory concentration (MIC)
Description: as §1

CCn1cc(C(=O)O)c(=O)c2cc(F)c(N3CCC(N)C3)nc21.Cl (stereo not drawn) [Compound 1, 7-(3-Amino-1-pyrrolidinyl)-1-ethyl-6-fluoro-1,4-dihydro-4-oxo-1,8-naphthyridine-3-carboxylic acid hydrochloride]
ED50 [1]: 1.7 mg/kg
in vitro antibacterial activity compared with known compounds (in words) [2]: far better in vitro antibacterial activity
antibacterial activity (in words) [2]: very high antibacterial activities
LD50 at 168 h [3]: > 2000 mg/kg
acute oral toxicity (in words) [3]: very weak; also recorded: low oral toxicity
MIC ([4]; NIHJJC2, Escherichia coli NIHJ JC-2, agar dilution, read-out: minimum inhibitory concentration (MIC)): 0.2 µg/mL
MIC [5]: 0.2 µg/mL
MIC [6]: < 0.05 µg/mL
MIC [7]: 0.2 µg/mL
MIC [8]: 0.2 µg/mL
MIC [9]: 0.2 µg/mL
MIC [10]: 0.39 µg/mL
MIC [11]: 0.1 µg/mL
MIC [12]: 0.1 µg/mL
MIC [13]: 0.2 µg/mL
MIC [14]: 1.56 µg/mL
MIC [15]: 0.1 µg/mL
MIC [16]: 0.39 µg/mL
MIC [17]: < 0.05 µg/mL
MIC [18]: 0.39 µg/mL
MIC [19]: 0.78 µg/mL
MIC [20]: 0.39 µg/mL
MIC [21]: 0.78 µg/mL
MIC ([22]; Staphylococcus aureus, NO.80, read-out: minimum inhibitory concentration (MIC)): 0.39 µg/mL
MIC [23]: 0.1 µg/mL
MIC [24]: 0.1 µg/mL
MIC [25]: 3.13 µg/mL

CCn1cc(C(=O)O)c(=O)c2cc(F)c(N3CCC(NC)C3)nc21.Cl (stereo not drawn) [Compound 2, 1-Ethyl-6-fluoro-1,4-dihydro-7-(3-methylamino-1-pyrrolidinyl)-4-oxo-1,8-naphthyridine-3-carboxylic acid hydrochloride]
ED50 [1]: 1.4 mg/kg
in vitro antibacterial activity compared with known compounds (in words) [2]: far better in vitro antibacterial activity
antibacterial activity (in words) [2]: very high antibacterial activities
LD50 at 168 h [3]: > 2000 mg/kg
acute oral toxicity (in words) [3]: very weak; also recorded: low oral toxicity
MIC ([4]; Escherichia coli, NIHJJC2, read-out: minimum inhibitory concentration (MIC)): 0.2 µg/mL
MIC [5]: 0.78 µg/mL
MIC [6]: 0.1 µg/mL
MIC [7]: 0.39 µg/mL
MIC [8]: 0.39 µg/mL
MIC [9]: 0.78 µg/mL
MIC [10]: 1.56 µg/mL
MIC [11]: 0.1 µg/mL
MIC [12]: 0.1 µg/mL
MIC [13]: 0.39 µg/mL
MIC [14]: 3.13 µg/mL
MIC [15]: 0.2 µg/mL
MIC [16]: 0.78 µg/mL
MIC [17]: 0.39 µg/mL
MIC [18]: 1.56 µg/mL
MIC [19]: 0.78 µg/mL
MIC [20]: 1.56 µg/mL
MIC [21]: 1.56 µg/mL
MIC ([22]; Staphylococcus aureus No. 80, agar dilution, read-out: minimum inhibitory concentration (MIC)): 0.78 µg/mL
MIC [23]: 0.2 µg/mL
MIC [24]: 0.2 µg/mL
MIC [25]: 6.25 µg/mL
